# Assay results from patent US4479943A, “3-Demethoxyistamycin B, the 2"-N-formimidoyl derivative thereof and pharmaceutical composition containing same” (Zaidan Hojin Biseibutsu Kagaku Kenkyu Kai, priority 1982, dated 1984).
# Legend:
# Providencia sp. Pv16 = test: Antibacterial MIC, standard serial dilution; type: cell-based; settings: nutrient agar, 37° C., 17 hours, as free base
# [1] = test system: Pseudomonas maltophilia GN 907; test: Antibacterial MIC, standard serial dilution; type: cell-based; settings: nutrient agar, 37° C., 17 hours, as free base
# [2] = test system: Bacillus cereus ATCC 10702; test: Antibacterial MIC, standard serial dilution; type: cell-based; settings: nutrient agar, 37° C., 17 hours, as free base
# Sarcina lutea PCI 1001 = test: Antibacterial MIC, standard serial dilution; type: cell-based; settings: nutrient agar, 37° C., 17 hours, as free base
# [3] = test system: Escherichia coli JR66/W677; test: Antibacterial MIC, standard serial dilution; type: cell-based; settings: nutrient agar, 37° C., 17 hours, as free base
# Escherichia coli W677 = test: Antibacterial MIC, standard serial dilution; type: cell-based; settings: nutrient agar, 37° C., 17 hours, as free base
# [4] = test system: Micrococcus flavus FDA 16; test: Antibacterial MIC, standard serial dilution; type: cell-based; settings: nutrient agar, 37° C., 17 hours, as free base
# [5] = test system: Pseudomonas aeruginosa B-13; test: Antibacterial MIC, standard serial dilution; type: cell-based; settings: nutrient agar, 37° C., 17 hours, as free base
# Serratia sp. SOU = test: Antibacterial MIC, standard serial dilution; type: cell-based; settings: nutrient agar, 37° C., 17 hours, as free base
# Shigella sonnei JS11746 = test: Antibacterial MIC, standard serial dilution; type: cell-based; settings: nutrient agar, 37° C., 17 hours, as free base
# [6] = test system: Pseudomonas aeruginosa H9; test: Antibacterial MIC, standard serial dilution; type: cell-based; settings: nutrient agar, 37° C., 17 hours, as free base
# [7] = test system: Bacillus subtilis PCI 219; test: Antibacterial MIC, standard serial dilution; type: cell-based; settings: nutrient agar, 37° C., 17 hours, as free base
# Escherichia coli K-12 = test: Antibacterial MIC, standard serial dilution; type: cell-based; settings: nutrient agar, 37° C., 17 hours, as free base
# [8] = test system: Pseudomonas aeruginosa PST1; test: Antibacterial MIC, standard serial dilution; type: cell-based; settings: nutrient agar, 37° C., 17 hours, as free base
# [9] = test system: Escherichia coli K-12 R388; test: Antibacterial MIC, standard serial dilution; type: cell-based; settings: nutrient agar, 37° C., 17 hours, as free base
# [10] = test system: Pseudomonas aeruginosa GN315; test: Antibacterial MIC, standard serial dilution; type: cell-based; settings: nutrient agar, 37° C., 17 hours, as free base
# [11] = test system: Escherichia coli K-12 J5R11-2; test: Antibacterial MIC, standard serial dilution; type: cell-based; settings: nutrient agar, 37° C., 17 hours, as free base
# Proteus rettgeri GN311 = test: Antibacterial MIC, standard serial dilution; type: cell-based; settings: nutrient agar, 37° C., 17 hours, as free base
# [12] = test system: Pseudomonas aeruginosa ROS 134/PU21; test: Antibacterial MIC, standard serial dilution; type: cell-based; settings: nutrient agar, 37° C., 17 hours, as free base
# [13] = test system: Pseudomonas aeruginosa 99; test: Antibacterial MIC, standard serial dilution; type: cell-based; settings: nutrient agar, 37° C., 17 hours, as free base
# Escherichia coli JR225 = test: Antibacterial MIC, standard serial dilution; type: cell-based; settings: nutrient agar, 37° C., 17 hours, as free base
# Serratia sp. 4 = test: Antibacterial MIC, standard serial dilution; type: cell-based; settings: nutrient agar, 37° C., 17 hours, as free base
# [14] = test system: Staphylococcus epidermidis 109; test: Antibacterial MIC, standard serial dilution; type: cell-based; settings: nutrient agar, 37° C., 17 hours, as free base
# bacteria = settings: in words; earlier work; cited from earlier work
# [15] = test system: Staphylococcus aureus FDA 209P; test: Antibacterial MIC, standard serial dilution; type: cell-based; settings: nutrient agar, 37° C., 17 hours, as free base
# [16] = test system: Pseudomonas aeruginosa H11; test: Antibacterial MIC, standard serial dilution; type: cell-based; settings: nutrient agar, 37° C., 17 hours, as free base
# Escherichia coli NIHJ = test: Antibacterial MIC, standard serial dilution; type: cell-based; settings: nutrient agar, 37° C., 17 hours, as free base
# [17] = test system: Shigella dysenteriae JS11910; test: Antibacterial MIC, standard serial dilution; type: cell-based; settings: nutrient agar, 37° C., 17 hours, as free base
# [18] = test system: Staphylococcus aureus Ap01; test: Antibacterial MIC, standard serial dilution; type: cell-based; settings: nutrient agar, 37° C., 17 hours, as free base
# [19] = test system: Escherichia coli K-12 ML1410; test: Antibacterial MIC, standard serial dilution; type: cell-based; settings: nutrient agar, 37° C., 17 hours, as free base
# Proteus rettgeri GN466 = test: Antibacterial MIC, standard serial dilution; type: cell-based; settings: nutrient agar, 37° C., 17 hours, as free base
# [20] = test system: Staphylococcus aureus Smith; test: Antibacterial MIC, standard serial dilution; type: cell-based; settings: nutrient agar, 37° C., 17 hours, as free base
# Serratia marcescens = test: Antibacterial MIC, standard serial dilution; type: cell-based; settings: nutrient agar, 37° C., 17 hours, as free base
# [21] = test system: Bacillus subtilis NRRL B-558; test: Antibacterial MIC, standard serial dilution; type: cell-based; settings: nutrient agar, 37° C., 17 hours, as free base
# [22] = test system: Klebsiella pneumoniae PCI602; test: Antibacterial MIC, standard serial dilution; type: cell-based; settings: nutrient agar, 37° C., 17 hours, as free base
# [23] = test system: Pseudomonas aeruginosa A3; test: Antibacterial MIC, standard serial dilution; type: cell-based; settings: nutrient agar, 37° C., 17 hours, as free base
# [24] = test system: Pseudomonas aeruginosa K-Ps 102; test: Antibacterial MIC, standard serial dilution; type: cell-based; settings: nutrient agar, 37° C., 17 hours, as free base
# [25] = test system: Salmonella enteritidis 1891; test: Antibacterial MIC, standard serial dilution; type: cell-based; settings: nutrient agar, 37° C., 17 hours, as free base
# [26] = test system: Escherichia coli K-12 ML1629; test: Antibacterial MIC, standard serial dilution; type: cell-based; settings: nutrient agar, 37° C., 17 hours, as free base
# Bacillus anthracis = type: cell-based; settings: nutrient agar, 37° C., 17 hours, as free base
# [27] = test system: Pseudomonas aeruginosa No. 12; test: Antibacterial MIC, standard serial dilution; type: cell-based; settings: nutrient agar, 37° C., 17 hours, as free base
# Proteus vulgaris 0X19 = test: Antibacterial MIC, standard serial dilution; type: cell-based; settings: nutrient agar, 37° C., 17 hours, as free base
# [28] = test system: Mycobacterium smegmatis ATCC 607; test: Antibacterial MIC, standard serial dilution; type: cell-based; settings: nutrient agar, 37° C., 17 hours, as free base
# Providencia sp. 2991 = test: Antibacterial MIC, standard serial dilution; type: cell-based; settings: nutrient agar, 37° C., 17 hours, as free base
# [29] = test system: Escherichia coli K-12 ML1630; test: Antibacterial MIC, standard serial dilution; type: cell-based; settings: nutrient agar, 37° C., 17 hours, as free base
# [30] = test system: Pseudomonas aeruginosa 21-75; test: Antibacterial MIC, standard serial dilution; type: cell-based; settings: nutrient agar, 37° C., 17 hours, as free base
# [31] = test system: Klebsiella pneumoniae 22#3038; test: Antibacterial MIC, standard serial dilution; type: cell-based; settings: nutrient agar, 37° C., 17 hours, as free base
# [32] = test system: Corynebacterium bovis 1810; test: Antibacterial MIC, standard serial dilution; type: cell-based; settings: nutrient agar, 37° C., 17 hours, as free base
# [33] = test system: Pseudomonas aeruginosa TI-13; test: Antibacterial MIC, standard serial dilution; type: cell-based; settings: nutrient agar, 37° C., 17 hours, as free base
# Salmonella typhi T-63 = test: Antibacterial MIC, standard serial dilution; type: cell-based; settings: nutrient agar, 37° C., 17 hours, as free base
# [34] = test system: Escherichia coli K-12 C600 R135; test: Antibacterial MIC, standard serial dilution; type: cell-based; settings: nutrient agar, 37° C., 17 hours, as free base
# [35] = test system: gram-negative and gram-positive bacteria; test: Antibacterial activity overall (Table 1 spectrum); type: cell-based; settings: in words
# [36] = test system: Escherichia coli K-12 LA290 R56; test: Antibacterial MIC, standard serial dilution; type: cell-based; settings: nutrient agar, 37° C., 17 hours, as free base
# mice = test: Acute toxicity, intravenous administration in mice; type: in vivo
# [37] = test system: Escherichia coli K-12 LA290 R64; test: Antibacterial MIC, standard serial dilution; type: cell-based; settings: nutrient agar, 37° C., 17 hours, as free base
# [38] = test system: Escherichia coli K-12 ML1410 R81; test: Antibacterial MIC, standard serial dilution; type: cell-based; settings: nutrient agar, 37° C., 17 hours, as free base
# Pseudomonas aeruginosa = settings: in words; earlier filings; cited from earlier work
smiles,measurement,setting,value
"CNC[C@@H]1CC[C@@H](N)[C@@H](O[C@H]2[C@H](O)[C@H](N(C)C(=O)CN)[C@@H](OC)C[C@H]2N)O1 [B, istamycin B]",MIC,Providencia sp. Pv16,1.56 µg/mL
same,MIC,[1],100 µg/mL
same,MIC,[2],6.25 µg/mL
same,MIC,Sarcina lutea PCI 1001,0.39 µg/mL
same,MIC,[3],1.56 µg/mL
same,MIC,Escherichia coli W677,0.78 µg/mL
same,MIC,[4],12.5 µg/mL
same,MIC,[5],> 100 µg/mL
same,MIC,Serratia sp. SOU,25 µg/mL
same,MIC,Shigella sonnei JS11746,0.78 µg/mL
same,MIC,[6],50 µg/mL
same,MIC,[7],0.39 µg/mL
same,MIC,Escherichia coli K-12,0.78 µg/mL
same,MIC,[8],50 µg/mL
same,MIC,[9],0.78 µg/mL
same,MIC,[10],50 µg/mL
same,MIC,[11],1.56 µg/mL
same,MIC,Proteus rettgeri GN311,0.78 µg/mL
same,MIC,[12],> 100 µg/mL
same,MIC,[13],100 µg/mL
same,MIC,Escherichia coli JR225,1.56 µg/mL
same,MIC,Serratia sp. 4,50 µg/mL
same,MIC,[14],0.39 µg/mL
same,antibacterial activity,bacteria,higher antibacterial activity than istamycin A
same,MIC,[15],0.39 µg/mL
same,MIC,[16],100 µg/mL
same,MIC,Escherichia coli NIHJ,0.39 µg/mL
same,MIC,[17],3.13 µg/mL
same,MIC,[18],0.78 µg/mL
same,MIC,[19],3.13 µg/mL
same,MIC,Proteus rettgeri GN466,0.78 µg/mL
same,MIC,[20],0.39 µg/mL
same,MIC,Serratia marcescens,1.56 µg/mL
same,MIC,[21],0.39 µg/mL
same,MIC,[22],3.13 µg/mL
same,MIC,[23],1.56 µg/mL
same,MIC,[24],50 µg/mL
same,MIC,[25],3.13 µg/mL
same,MIC,[26],1.56 µg/mL
same,MIC,Bacillus anthracis,0.78 µg/mL
same,MIC,[27],50 µg/mL
same,MIC,Proteus vulgaris 0X19,0.39 µg/mL
same,MIC,[28],0.78 µg/mL
same,MIC,Providencia sp. 2991,3.13 µg/mL
same,MIC,[29],3.13 µg/mL
same,MIC,[30],100 µg/mL
same,MIC,[31],1.56 µg/mL
same,MIC,[32],0.39 µg/mL
same,MIC,[33],50 µg/mL
same,MIC,Salmonella typhi T-63,0.39 µg/mL
"CNCC1CCC(N)C(OC2C(N)CCC(N(C)C(=O)CN)C2O)O1 (stereo not drawn) [DB, 3-demethoxyistamycin B]",MIC,Providencia sp. Pv16,0.78 µg/mL
same,MIC,[34],0.78 µg/mL
same,MIC,[1],100 µg/mL
same,MIC,[2],1.56 µg/mL
same,MIC,Sarcina lutea PCI 1001,< 0.20 µg/mL
same,antibacterial activity,[35],the most active compound
same,MIC,[3],0.78 µg/mL
same,MIC,Escherichia coli W677,0.39 µg/mL
same,MIC,[4],3.13 µg/mL
same,MIC,[5],50 µg/mL
same,MIC,Serratia sp. SOU,3.13 µg/mL
same,MIC,[6],12.5 µg/mL
same,MIC,[7],< 0.20 µg/mL
same,MIC,Escherichia coli K-12,0.78 µg/mL
same,MIC,[36],0.39 µg/mL
same,MIC,[8],12.5 µg/mL
same,MIC,[9],0.39 µg/mL
same,MIC,[10],6.25 µg/mL
same,MIC,[11],0.78 µg/mL
same,acute toxicity,"mice; mice, intravenous, in words",low toxicity
same,tolerated dose (all treated mice),"mice; mouse, in vivo, iv, 336 h",100 mg/kg
same,MIC,Proteus rettgeri GN311,0.39 µg/mL
same,MIC,[12],50 µg/mL
same,MIC,[13],25 µg/mL
same,MIC,Escherichia coli JR225,0.78 µg/mL
same,MIC,Serratia sp. 4,12.5 µg/mL
same,MIC,[14],< 0.20 µg/mL
same,MIC,[15],< 0.20 µg/mL
same,MIC,[16],25.0 µg/mL
same,MIC,Escherichia coli NIHJ,0.39 µg/mL
same,MIC,[17],1.56 µg/mL
same,MIC,[18],0.39 µg/mL
same,MIC,[19],1.56 µg/mL
same,MIC,[37],0.78 µg/mL
same,MIC,Proteus rettgeri GN466,0.39 µg/mL
same,MIC,[20],0.20 µg/mL
same,MIC,[38],0.78 µg/mL
same,MIC,Serratia marcescens,0.78 µg/mL
same,MIC,[21],< 0.20 µg/mL
same,MIC,[22],0.78 µg/mL
same,MIC,[23],0.39 µg/mL
same,MIC,[24],12.5 µg/mL
same,MIC,[25],1.56 µg/mL
same,MIC,[26],0.78 µg/mL
same,MIC,Bacillus anthracis,0.39 µg/mL
same,MIC,[27],12.5 µg/mL
same,MIC,Proteus vulgaris 0X19,0.39 µg/mL
same,MIC,[28],0.39 µg/mL
same,MIC,Providencia sp. 2991,1.56 µg/mL
same,MIC,[30],50 µg/mL
same,MIC,[31],1.56 µg/mL
same,MIC,[32],< 0.20 µg/mL
same,MIC,[33],6.25 µg/mL
same,MIC,Salmonella typhi T-63,< 0.20 µg/mL
"CN(C(=O)CN)C1C(O)CC(N)C(OC2OC(CN)CCC2N)C1O (stereo not drawn) [di-N^6',O^3 -demethylistamycinA]",antibacterial activity against Pseudomonas aeruginosa,Pseudomonas aeruginosa,significantly higher than the parent istamycin A
